Measured values published in patent publication US20120184504A1, “"The Use of a PAR-1 Antagonist in Combination with a P2Y12 ADP Receptor Antagonist for Inhibition of Thrombosis"” (priority 2009, published 2012).

How the values were obtained:
Assay type in all cases: in vivo, cynomolgus monkeys
[1] = Activated partial thromboplastin time (APTT) in plasma, Folts model animals; conditions: for APTT: i.v.; for effect on APTT: tested doses
Protocol: (§1) Animals instrumented to produce CFRs were administered SCH 602539, cangrelor, or a combination of SCH 602539 and cangrelor. The dosing regimens of SCH 602539 were selected to provide a broad range of inhibition of platelet aggregation induced by 1 μM thrombin receptor agonist peptide (TRAP), whereas the doses of cangrelor were selected to achieve 50%-60% inhibition of platelet aggregation induced by 10 μM ADP (the degree of inhibition obtained with clopidogrel). Group 1 received drug vehicle only (20% hydroxypropyl betacyclodextran or saline, 2 mL i.v.). Group 2 received SCH 602539 dissolved in 20% hydroxypropyl betacyclodextran administered as sequential i.v. boluses of 0.1, 0.3, or 1 mg/kg, at 30-minute intervals. Group 3 received cangrelor dissolved in saline and administered as an intravenous infusion of 0.1, 0.2, or 0.3 μg/kg/min for 30 minutes each. Group 4 received a combination of SCH 602539 bolus plus cangrelor infusion (at respective doses of: 1) 0.05 mg/kg+0.05 μg/kg/min; 2) 0.1 mg/kg+0.1 μg/kg/min; and 3) 0.15 mg/kg+0.1 μg/kg/min. The three dose regimens within each group were administered sequentially over the consecutive 30-minute periods coinciding with the re-induction of endothelial injury. Study drug or vehicle was administered after stable CFRs were achieved, and upon the completion of a 30-minute baseline CFR collection period, drug(s) or vehicle were administered incrementally (every 30 minutes) either as a bolus (SCH 602539) or as an infusion (cangrelor), and their effects on CFRs were monitored in the next three 30-minute observation periods. Blood samples (3 mL) were collected from the femoral arterial catheter at the end of each 30-minute observation period for assessment of ex vivo platelet aggregation and coagulation parameters.
(§2) Platelet aggregation studies were performed ex viva on blood samples obtained from the monkeys subjected to the Folts model, using a ChronoLog whole blood aggregometer (Model 540VS, Havertown, Pa.). Briefly, 0.5 mL of blood was incubated with 0.5 mL of normal saline at 37° C. in a cuvette containing a stir bar for 2 minutes. Platelet agonists used in this study included TRAP (3 μM), ADP (10 μM), the thromboxane A2 mimetic U46619 (10 μM), and collagen (3 μg/mL). Platelet aggregation was monitored for 5 minutes following the addition of the agonist. The peak aggregation response was recorded in ohms. In addition, standard coagulation parameters, including prothrombin time (PT), activated partial thromboplastin time (APTT), and activated clotting time (ACT), were assessed.
PT and APTT assays were performed with plasma, while the ACT assay was performed with whole blood. Data are presented as mean±SEM (n=5-6/group).

[2] = system: platelet aggregation induced by thromboxane A2 mimetic U46619 (10 μM); assay: Ex vivo whole blood platelet aggregation induced by U46619
Protocol: as §1, §2

[3] = system: platelet aggregation induced by TRAP (3 μM); assay: Ex vivo whole blood platelet aggregation induced by TRAP
Protocol: as §1, §2

[4] = cangrelor 0.2 and 0.3 μg/kg/min

Compound `CSCCNc1nc(SCCC(F)(F)F)nc2c1ncn2[C@@H]1O[C@H](COP(=O)(O)OP(=O)(O)C(Cl)(Cl)P(=O)(O)O)[C@@H](O)[C@H]1O` [Cangrelor] has an APTT ([1]; Cangrelor 0.1 μg/kg/min × 30 min, plasma, baseline 22.5 ± 1.6) of 23.6 ± 2.6 s, an APTT ([1]; Cangrelor 0.2 μg/kg/min × 30 min, baseline 22.5 ± 1.6) of 22.1 ± 1.3 s and an APTT ([1]; Cangrelor 0.3 μg/kg/min × 30 min, baseline 22.5 ± 1.6) of 22.2 ± 2.0 s. The “effect on APTT” value [1] was “no effect”, the “Aggregation, U46619” value ([2]; Cangrelor 0.1 μg/kg/min, baseline 15 ± 3) was 12 ± 3 ohms and the “Aggregation, U46619” value ([2]; Cangrelor 0.2 μg/kg/min, baseline 15 ± 3) was 10 ± 4 ohms. The “Aggregation, U46619” value ([2]; Cangrelor 0.3 μg/kg/min, baseline 15 ± 3) was 10 ± 4 ohms, the “effect on aggregation stimulated by 10 μM U46619” value [2, 4] was “did not interfere” and the “Aggregation, TRAP” value ([3]; Cangrelor 0.1 μg/kg/min, baseline 13 ± 3) was 12 ± 3 ohms. The “Aggregation, TRAP” value ([3]; Cangrelor 0.2 μg/kg/min, baseline 13 ± 3) was 12 ± 3 ohms, the “Aggregation, TRAP” value ([3]; Cangrelor 0.3 μg/kg/min, baseline 13 ± 3) was 9 ± 3 ohms and the “effect on aggregation stimulated by 3 μM TRAP” value [3, 4] was “did not interfere”.
In the case of `CCOC(=O)N[C@@H]1CC[C@@H]2[C@@H](C1)C[C@H]1C(=O)O[C@H](C)[C@H]1[C@H]2/C=C/c1ccc(-c2ccccn2)cn1` [SCH 602539], the APTT ([1]; SCH 602539 0.1 mg/kg, bolus, plasma, baseline 22.8 ± 1.7) is reported as 22.4 ± 1.5 s, the APTT ([1]; SCH 602539 0.3 mg/kg, bolus, baseline 22.8 ± 1.7) is reported as 23.4 ± 2.2 s and the APTT ([1]; SCH 602539 1.0 mg/kg, bolus, baseline 22.8 ± 1.7) is reported as 25.4 ± 4.9 s. The “effect on APTT” value [1] was “no effect”, the “Aggregation, U46619” value ([2]; SCH 602539 0.1 mg/kg, baseline 20 ± 5) was 17 ± 3 ohms and the “effect on aggregation induced by 10 μM U46619” value ([2]; SCH 602539 0.3 mg/kg and 1 mg/kg) was “did not affect”. The “Aggregation, U46619” value ([2]; SCH 602539 0.3 mg/kg, baseline 20 ± 5) was 19 ± 4 ohms, the “Aggregation, U46619” value ([2]; SCH 602539 1.0 mg/kg, baseline 20 ± 5) was 21 ± 5 ohms and the “Aggregation, TRAP” value ([3]; SCH 602539 0.1 mg/kg, baseline 14 ± 3) was 9 ± 4 ohms. The “Aggregation, TRAP” value ([3]; SCH 602539 0.3 mg/kg, baseline 14 ± 3) was 2 ± 2 ohms and the “inhibition of ex vivo platelet aggregation induced by 3 μM TRAP” value ([3]; two highest doses of SCH 602539 (0.3 mg/kg and 1 mg/kg)) was greater than 80%.
